In patent US20190264193A1, “PROTEIN ENGINEERING METHODS” (Caribou Biosciences, Inc., priority 2016, published 2019):

What was measured:
[1] = biological target: T1, DNA-PK (Homo sapiens, UniProt P78527); assay: DNA repair outcomes after Cas9 cleavage by amplicon sequencing, HEK293 plus NU7441; format: cell-based; conditions: JAK1 target site; 48 hours after nucleofection of sgRNP in HEK293 plus NU7441 (FIG. 6F)
Experimental: In order to assess DNA repair outcomes in human cells, the following experiment was conducted using methods as described in van Overbeek et al., Molecular Cell (2016) http://dx.doi.org/10.1016/j.molcel.2016.06.037. Briefly, the repair outcomes following Cas9 cleavage of double-stranded DNA, which result in blunt end products, were profiled using computational tools developed to categorize indels from a cell-based assay. To this end, HEK293, K562 and CCRF-CEM cells were transfected with pre-assembled complexes of Cas9 protein and sgRNA (single-guide RNA ribonucleoprotein complexes (sgRNPs). The Cas9/sgRNA complexes used were prepared as described in van Overbeek et al., Molecular Cell (2016) http://dx.doi.org/10.1016/j.molcel.2016.06.037. DNA repair patterns following Cas9 cleavage were analyzed by amplicon sequencing at time points as shown in FIGS. 6A-6F.
Sequencing reads were assigned to a specific indel class based on the indel type (insertion or deletion), start site, and length (or to the wild-type class), and then the frequency of each class was calculated as a fraction of aligned reads or as a fraction of mutant reads. […]

[2] = biological target: T1, DNA-PK; assay: NU7441 five point dose response on DNA repair patterns after sgRNP nucleofection; format: cell-based; conditions: HEK293 T cells
Experimental: In order to assess whether compounds can alter the DNA repair pathways, the following experiment was conducted with methods as described in van Overbeek et al., Molecular Cell (2016) http://dx.doi.org/10.1016/j.molcel.2016.06.037. Briefly, to test the hypothesis that suppression of c-NHEJ would alter the DNA repair landscapes, favoring MMEJ repair outcomes, a chemical inhibitor of DNA-PK, NU7441, was added to HEK293 T cells one hour post nucleofection in a five point dose response. Genomic lysate was harvested 48 hours post nucleofection and processed.
As inhibitor concentration increased, the mean frequency of single base insertions and small deletions (<3 base pairs) decreased, whereas the mean frequency of a subset of large deletions (>3 base pairs) present in the DNA repair profiles increased. This experiment evidences that the suppression of c-NHEJ enhances DNA repair by MMEJ pathways after DSB formation by Cas9.

[3] = as inhibitor concentration increased

T1 sequence (P78527 whole entry): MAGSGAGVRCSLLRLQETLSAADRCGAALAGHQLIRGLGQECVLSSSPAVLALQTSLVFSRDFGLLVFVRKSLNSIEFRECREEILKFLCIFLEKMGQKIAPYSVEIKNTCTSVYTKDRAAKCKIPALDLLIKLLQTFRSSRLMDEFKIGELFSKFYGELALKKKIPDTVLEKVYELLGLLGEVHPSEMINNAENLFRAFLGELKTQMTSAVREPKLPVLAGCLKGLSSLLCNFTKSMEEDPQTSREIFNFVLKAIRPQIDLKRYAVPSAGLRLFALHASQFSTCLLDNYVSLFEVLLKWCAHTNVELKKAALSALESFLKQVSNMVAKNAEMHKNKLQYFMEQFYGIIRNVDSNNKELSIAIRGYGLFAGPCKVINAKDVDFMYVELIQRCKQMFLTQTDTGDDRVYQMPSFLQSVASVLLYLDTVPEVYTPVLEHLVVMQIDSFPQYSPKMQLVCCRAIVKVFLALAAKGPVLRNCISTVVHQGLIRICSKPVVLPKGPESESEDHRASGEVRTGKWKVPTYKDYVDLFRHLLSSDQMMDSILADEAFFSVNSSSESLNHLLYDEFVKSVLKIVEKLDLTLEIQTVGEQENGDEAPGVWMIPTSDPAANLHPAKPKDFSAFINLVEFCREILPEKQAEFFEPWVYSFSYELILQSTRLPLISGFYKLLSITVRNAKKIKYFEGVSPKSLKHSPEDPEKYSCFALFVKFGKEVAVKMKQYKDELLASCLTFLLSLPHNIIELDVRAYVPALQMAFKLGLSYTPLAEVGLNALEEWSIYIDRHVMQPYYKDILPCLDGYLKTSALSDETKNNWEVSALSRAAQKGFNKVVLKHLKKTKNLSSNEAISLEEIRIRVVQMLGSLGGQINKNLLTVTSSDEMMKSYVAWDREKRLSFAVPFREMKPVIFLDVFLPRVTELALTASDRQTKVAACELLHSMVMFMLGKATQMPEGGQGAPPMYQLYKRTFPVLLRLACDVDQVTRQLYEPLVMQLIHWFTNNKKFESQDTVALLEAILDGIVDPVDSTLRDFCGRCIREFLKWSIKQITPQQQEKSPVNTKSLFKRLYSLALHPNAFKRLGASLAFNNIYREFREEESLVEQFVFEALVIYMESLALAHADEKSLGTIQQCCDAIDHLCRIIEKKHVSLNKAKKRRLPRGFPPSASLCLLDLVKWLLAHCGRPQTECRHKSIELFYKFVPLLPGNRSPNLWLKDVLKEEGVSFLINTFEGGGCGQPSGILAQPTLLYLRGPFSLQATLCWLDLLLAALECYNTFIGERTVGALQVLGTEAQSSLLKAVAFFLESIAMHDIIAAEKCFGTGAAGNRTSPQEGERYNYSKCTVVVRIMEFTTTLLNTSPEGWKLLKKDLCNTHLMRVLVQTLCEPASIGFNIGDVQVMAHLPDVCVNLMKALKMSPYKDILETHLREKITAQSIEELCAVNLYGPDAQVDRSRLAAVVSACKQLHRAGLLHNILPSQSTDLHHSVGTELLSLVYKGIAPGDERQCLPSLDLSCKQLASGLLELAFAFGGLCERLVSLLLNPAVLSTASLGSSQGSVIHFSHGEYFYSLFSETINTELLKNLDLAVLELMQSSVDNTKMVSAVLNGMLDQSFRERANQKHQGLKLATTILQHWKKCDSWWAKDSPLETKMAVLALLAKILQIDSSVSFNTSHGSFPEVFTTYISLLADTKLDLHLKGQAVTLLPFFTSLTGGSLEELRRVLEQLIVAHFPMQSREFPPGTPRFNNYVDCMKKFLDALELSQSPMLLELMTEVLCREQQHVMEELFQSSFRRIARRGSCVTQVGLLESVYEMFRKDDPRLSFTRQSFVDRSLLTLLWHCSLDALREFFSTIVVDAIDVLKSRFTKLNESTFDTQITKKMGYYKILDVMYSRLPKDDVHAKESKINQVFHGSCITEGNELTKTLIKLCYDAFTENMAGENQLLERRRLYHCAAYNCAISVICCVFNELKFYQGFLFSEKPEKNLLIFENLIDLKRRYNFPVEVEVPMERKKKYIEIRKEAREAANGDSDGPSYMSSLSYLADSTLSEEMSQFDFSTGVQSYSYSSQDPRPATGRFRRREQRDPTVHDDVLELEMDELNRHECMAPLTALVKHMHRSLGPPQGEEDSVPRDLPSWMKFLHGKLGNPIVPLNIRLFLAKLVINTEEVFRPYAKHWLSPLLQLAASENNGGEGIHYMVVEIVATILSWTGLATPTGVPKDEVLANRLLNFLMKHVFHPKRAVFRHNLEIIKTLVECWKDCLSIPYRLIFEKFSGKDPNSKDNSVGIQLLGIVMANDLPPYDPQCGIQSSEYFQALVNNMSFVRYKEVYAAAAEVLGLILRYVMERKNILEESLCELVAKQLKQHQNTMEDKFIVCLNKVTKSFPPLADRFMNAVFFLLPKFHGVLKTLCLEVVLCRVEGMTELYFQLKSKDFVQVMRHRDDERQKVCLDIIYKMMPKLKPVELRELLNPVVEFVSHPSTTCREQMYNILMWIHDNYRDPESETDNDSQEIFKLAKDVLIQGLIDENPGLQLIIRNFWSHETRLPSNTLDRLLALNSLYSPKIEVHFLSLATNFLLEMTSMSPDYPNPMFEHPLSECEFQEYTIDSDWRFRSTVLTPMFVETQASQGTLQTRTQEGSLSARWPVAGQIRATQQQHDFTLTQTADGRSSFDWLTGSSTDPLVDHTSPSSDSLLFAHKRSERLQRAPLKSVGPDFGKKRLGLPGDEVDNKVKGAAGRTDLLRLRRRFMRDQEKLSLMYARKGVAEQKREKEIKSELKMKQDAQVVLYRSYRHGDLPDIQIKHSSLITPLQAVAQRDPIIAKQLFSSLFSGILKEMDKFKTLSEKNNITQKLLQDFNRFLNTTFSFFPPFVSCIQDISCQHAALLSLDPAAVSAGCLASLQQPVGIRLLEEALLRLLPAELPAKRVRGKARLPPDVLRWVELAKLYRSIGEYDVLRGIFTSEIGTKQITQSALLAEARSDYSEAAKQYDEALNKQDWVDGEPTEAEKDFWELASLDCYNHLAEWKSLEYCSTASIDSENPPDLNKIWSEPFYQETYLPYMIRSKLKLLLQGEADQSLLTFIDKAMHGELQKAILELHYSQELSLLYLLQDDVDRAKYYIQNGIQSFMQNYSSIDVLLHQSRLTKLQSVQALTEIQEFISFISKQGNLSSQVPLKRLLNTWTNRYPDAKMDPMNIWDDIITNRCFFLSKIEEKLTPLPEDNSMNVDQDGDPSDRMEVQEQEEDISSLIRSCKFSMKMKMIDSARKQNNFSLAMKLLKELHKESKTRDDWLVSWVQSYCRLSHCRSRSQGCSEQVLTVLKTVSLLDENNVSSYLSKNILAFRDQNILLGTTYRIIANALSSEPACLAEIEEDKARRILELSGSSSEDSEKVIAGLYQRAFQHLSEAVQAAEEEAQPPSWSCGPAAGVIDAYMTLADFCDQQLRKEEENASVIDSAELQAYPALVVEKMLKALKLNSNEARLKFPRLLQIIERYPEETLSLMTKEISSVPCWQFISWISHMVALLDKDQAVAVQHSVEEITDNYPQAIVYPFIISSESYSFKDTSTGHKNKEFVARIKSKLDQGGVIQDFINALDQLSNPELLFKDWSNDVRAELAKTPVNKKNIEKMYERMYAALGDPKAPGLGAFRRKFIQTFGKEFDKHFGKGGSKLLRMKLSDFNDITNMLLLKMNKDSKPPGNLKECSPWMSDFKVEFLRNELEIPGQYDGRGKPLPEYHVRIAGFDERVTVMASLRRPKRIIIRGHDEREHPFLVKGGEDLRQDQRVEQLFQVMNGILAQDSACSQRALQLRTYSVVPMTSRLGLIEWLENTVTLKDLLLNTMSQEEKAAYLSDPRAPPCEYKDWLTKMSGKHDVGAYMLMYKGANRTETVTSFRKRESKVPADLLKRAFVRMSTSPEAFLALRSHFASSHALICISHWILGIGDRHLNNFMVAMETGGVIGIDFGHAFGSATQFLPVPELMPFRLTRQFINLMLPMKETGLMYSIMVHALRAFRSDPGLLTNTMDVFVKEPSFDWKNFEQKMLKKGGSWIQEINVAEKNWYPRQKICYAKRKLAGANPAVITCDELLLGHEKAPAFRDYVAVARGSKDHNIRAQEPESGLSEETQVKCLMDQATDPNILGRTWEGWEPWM

DNA repair outcomes (classes and frequency) compared with FIG. 6A (HEK293 without inhibitor) [1]: different DNA repair outcomes | mean frequency of a subset of large deletions (>3 base pairs) [2, 3]: increased | mean frequency of single base insertions and small deletions (<3 base pairs) [2, 3]: decreased
Structure (SMILES): O=c1cc(N2CCOCC2)oc2c(-c3cccc4c3sc3ccccc34)cccc12 [NU7441]
change of the DNA repair patterns compared with untreated samples ([2]; lowest concentration of inhibitor 1.56 μM, 12 different target sites, added one hour post nucleofection, harvested 48 hours): a change of the DNA repair patterns at 12 different target sites compared with untreated samples was apparent
